One assay relates to DLD-1. Kind of assay: cells. In kind it is cell-based. The following applies: for Basal_Viability ATP DLD-1 IC50/EC50: assay number 23.
The test system of another assay is RKO. Kind of assay: cells. In kind it is cell-based. Conditions: for Basal_Viability ATP RKO IC50/EC50: assay number 29.
For the next assay, the system named is HCT116. The assay is described as follows: cells. The following applies: basal; for Basal_Viability ATP HCT116 IC50/EC50: assay number 25. In kind it is cell-based.
For a further assay, the system named is SW480. Kind of assay: cells. The following applies: for Basal_Viability ATP SW480 IC50/EC50: assay number 24. In kind it is cell-based.
A further assay deals with Colo320. Kind of assay: cells. In kind it is cell-based. Conditions: for Basal_Viability ATP Colo 320 IC50/EC50: assay number 27.
For assay [1], the system named is endothelial tube formation in co-cultures of ECFCs and ADSCs treated with VEGF. The assay is described as follows: cells. In kind it is cell-based, human.
Assay [2] deals with ECFC/ADSC co-culture cell nuclei number.
The subject of assay [3] is HCT116 cells treated with a GSK3β inhibitor. The assay is described as follows: cells. In kind it is cell-based. Conditions: for GSK3b inh pretreated_Viability ATP HCT116 IC50/EC50: assay number 26, GSK3b inhibitor pretreated.
For another assay, the system named is HT-29. The assay is described as follows: cells. In kind it is cell-based. Conditions: for Basal_Viability ATP HT-29 IC50/EC50: assay number 28.
The test system of a further assay is SNU-C1. Kind of assay: cells. In kind it is cell-based. The following applies: for Basal_Viability ATP SNU-C1 IC50/EC50: assay number 30.

Turning to `CNS(=O)(=O)CCc1ccc2[nH]cc(C3CCN(C)CC3)c2c1.Cl` [NCGC00181786-02], in the assay with DLD-1 (basal), the “IC50/EC50, Basal_Viability ATP DLD-1 (assay number 23)” value was above 20 µM. Moreover, the “IC50/EC50, Basal_Viability ATP RKO (assay number 29)” value with RKO (basal) was above 20 µM. Also, in the assay with HCT116, the “IC50/EC50, Basal_Viability ATP HCT116 (assay number 25)” value is given as above 20 µM. In addition, the “IC50/EC50, Basal_Viability ATP SW480 (assay number 24)” value in the assay on SW480 (basal) was above 20 µM. In addition, the “IC50/EC50, Basal_Viability ATP Colo 320 (assay number 27)” value with Colo320 (basal) was above 20 µM. The “IC50/EC50, VEGF_ADSC\ECFC Angio CD31 TubeArea (assay number 2)” value in assay [1] is above 10 µM. Also, in assay [2], the “IC50/EC50, VEGF_ADSC\ECFC Angio Hoechst NucArea (assay number 3)” value is recorded as above 10 µM. The “IC50/EC50, GSK3b inh pretreated_Viability ATP HCT116 (assay number 26)” value in assay [3] (GSK3b inh pretreated) was found to be 12.1308 µM. Also, the “IC50/EC50, Basal_Viability ATP HT-29 (assay number 28)” value in the assay on HT-29 (basal) is on record as above 20 µM. Moreover, the “IC50/EC50, Basal_Viability ATP SNU-C1 (assay number 30)” value with SNU-C1 (basal) is on record as above 20 µM.

With `CCCCCCCC[N+](C)(C)CCCCCCCC` [NCGC00182056-04], in the assay with DLD-1 (basal), the “Basal_Viability ATP DLD-1 IC50/EC50” value came to 3.2197 µM. In the assay with RKO (basal), the “Basal_Viability ATP RKO IC50/EC50” value was found to be 2.183 µM. Further, the “Basal_Viability ATP HCT116 IC50/EC50” value with HCT116 is listed as 6.2411 µM. Further, in the assay on SW480 (basal), the “Basal_Viability ATP SW480 IC50/EC50” value turned out to be 3.4577 µM. For the same compound, the “Basal_Viability ATP Colo 320 IC50/EC50” value in the assay with Colo320 (basal) is recorded as 4.6621 µM. Further, in assay [1], the “VEGF_ADSC\ECFC Angio CD31 TubeArea IC50/EC50” value came out at 1.3911 µM. Also, the “VEGF_ADSC\ECFC Angio Hoechst NucArea IC50/EC50” value in assay [2] was 7.431 µM. In addition, the “GSK3b inh pretreated_Viability ATP HCT116 IC50/EC50” value in assay [3] amounted to 3.6902 µM. Moreover, in the assay with HT-29 (basal), the “Basal_Viability ATP HT-29 IC50/EC50” value is recorded as 3.9986 µM. For the same compound, the “Basal_Viability ATP SNU-C1 IC50/EC50” value with SNU-C1 (basal) worked out at 1.4417 µM.

Turning to `Cc1c(O)cc2c(c1C)O[C@](C)(CCC[C@H](C)CCC[C@H](C)CCCC(C)C)CC2` [NCGC00185764-03], the “Basal_Viability ATP DLD-1 IC50/EC50” value with DLD-1 (basal) is above 20 µM. In addition, the “Basal_Viability ATP RKO IC50/EC50” value in the assay on RKO (basal) is reported as above 20 µM. Also, the “Basal_Viability ATP HCT116 IC50/EC50” value with HCT116 is recorded as above 20 µM. For the same compound, the “Basal_Viability ATP SW480 IC50/EC50” value in the assay with SW480 (basal) is above 20 µM. Moreover, the “Basal_Viability ATP Colo 320 IC50/EC50” value in the assay on Colo320 (basal) is above 20 µM. Moreover, in assay [1], the “VEGF_ADSC\ECFC Angio CD31 TubeArea IC50/EC50” value is recorded as above 10 µM. In assay [2], the “VEGF_ADSC\ECFC Angio Hoechst NucArea IC50/EC50” value is above 10 µM. Moreover, the “GSK3b inh pretreated_Viability ATP HCT116 IC50/EC50” value in [3] is recorded as above 20 µM. In the assay on HT-29 (basal), the “Basal_Viability ATP HT-29 IC50/EC50” value is reported as above 20 µM. Also, the “Basal_Viability ATP SNU-C1 IC50/EC50” value in the assay with SNU-C1 (basal) was above 20 µM.

On to `COC(=O)C1=C(C)NC(C)=C(C(=O)O[C@@H]2CCCN(Cc3ccccc3)C2)[C@@H]1c1cccc([N+](=O)[O-])c1.Cl` [NCGC00185768-01], for which the “Basal_Viability ATP DLD-1 IC50/EC50” value in the assay on DLD-1 turned out to be 7.9596 µM. The “Basal_Viability ATP RKO IC50/EC50” value in the assay with RKO worked out at 8.0546 µM. Besides, the “Basal_Viability ATP HCT116 IC50/EC50” value in the assay with HCT116 is 4.2797 µM. Also, the “Basal_Viability ATP SW480 IC50/EC50” value with SW480 is on record as above 20 µM. The “Basal_Viability ATP Colo 320 IC50/EC50” value in the assay on Colo320 came out at 19.5148 µM. Further, the “VEGF_ADSC\ECFC Angio CD31 TubeArea IC50/EC50” value in [1] is listed as above 10 µM. Further, in assay [2], the “VEGF_ADSC\ECFC Angio Hoechst NucArea IC50/EC50” value is reported as above 10 µM. Further, the “GSK3b inh pretreated_Viability ATP HCT116 IC50/EC50” value in assay [3] worked out at 5.3147 µM. Also, the “Basal_Viability ATP HT-29 IC50/EC50” value in the assay with HT-29 is 5.2728 µM. Besides, the “Basal_Viability ATP SNU-C1 IC50/EC50” value in the assay on SNU-C1 was found to be 5.7601 µM.

As for `CCCCCCCCCCCCCCCCCCOP(=O)([O-])OC1CC[N+](C)(C)CC1` [NCGC00187909-02], in the assay with DLD-1 (concentration response), the “Basal_Viability ATP DLD-1 IC50/EC50” value was above 20 µM. Also, the “Basal_Viability ATP RKO IC50/EC50” value in the assay on RKO (concentration response) is given as 2.0992 µM. In addition, in the assay with HCT116 (concentration response), the “Basal_Viability ATP HCT116 IC50/EC50” value is given as 3.1704 µM. The “Basal_Viability ATP SW480 IC50/EC50” value in the assay on SW480 (concentration response) was determined as 0.8519 µM. The “Basal_Viability ATP Colo 320 IC50/EC50” value with Colo320 (concentration response) amounted to 2.358 µM. Besides, in [1], the “VEGF_ADSC\ECFC Angio CD31 TubeArea IC50/EC50” value is above 10 µM. The “VEGF_ADSC\ECFC Angio Hoechst NucArea IC50/EC50” value in assay [2] is recorded as above 10 µM. Further, the “GSK3b inh pretreated_Viability ATP HCT116 IC50/EC50” value in assay [3] (concentration response) is listed as 5.7889 µM. Besides, in the assay with HT-29 (concentration response), the “Basal_Viability ATP HT-29 IC50/EC50” value turned out to be 6.9016 µM. Moreover, the “Basal_Viability ATP SNU-C1 IC50/EC50” value in the assay with SNU-C1 (concentration response) is reported as above 20 µM.

Take `CCOC(=O)/C=C(C)/C=C/C[C@@H](C)CCCC(C)C` [NCGC00248275-02]: the “Basal_Viability ATP DLD-1 IC50/EC50” value in the assay on DLD-1 (concentration response) was above 20 µM. For the same compound, in the assay on RKO (concentration response), the “Basal_Viability ATP RKO IC50/EC50” value is above 20 µM. The “Basal_Viability ATP HCT116 IC50/EC50” value in the assay on HCT116 (concentration response) is given as above 20 µM. For the same compound, in the assay with SW480 (concentration response), the “Basal_Viability ATP SW480 IC50/EC50” value is above 20 µM. The “Basal_Viability ATP Colo 320 IC50/EC50” value with Colo320 (concentration response) is above 20 µM. In addition, the “VEGF_ADSC\ECFC Angio CD31 TubeArea IC50/EC50” value in assay [1] was above 10 µM. In assay [2], the “VEGF_ADSC\ECFC Angio Hoechst NucArea IC50/EC50” value is above 10 µM. In addition, the “GSK3b inh pretreated_Viability ATP HCT116 IC50/EC50” value in assay [3] (concentration response) is listed as above 20 µM. The “Basal_Viability ATP HT-29 IC50/EC50” value in the assay on HT-29 (concentration response) is on record as above 20 µM. Further, the “Basal_Viability ATP SNU-C1 IC50/EC50” value in the assay with SNU-C1 (concentration response) is above 20 µM.

(Values after article PMC4503722, “Novel Phenotypic Outcomes Identified for a Public Collection of Approved Drugs from a Publicly Accessible Panel of Assays” (PLoS ONE, 2015).)
